Reference: patent publication US10376520B2, “Methods for the treatment of cardiovascular disorders” (Galapagos NV, priority 2015, dated 2019)

Test system: RA patients
Assay: LDL determination, Study 2 (RA patients, monotherapy)
Assay type: in vivo, human
Conditions: for [LDL] Mean CFB / [LDL] Median CFB: Study 2 12 weeks results
From the text: Randomized, double-blind, placebo-controlled, multicenter, phase IIb dose finding study of Compound 1 (dosed as a [Compound 1:HCl:3H2O]) administered for 24 weeks as monotherapy to subjects with moderately to severely active rheumatoid arthritis who have an inadequate response to methotrexate alone
Double-blind, placebo-controlled, monotherapy study in subjects with moderately to severely active RA who have an inadequate response to methotrexate (MTX) (oral or parenteral).
280 subjects randomized to one of 3 doses of Compound 1 (dosed as a [Compound 1:HCl:3H2O]) or to placebo, given once daily (q.d.).
Twelve weeks of treatment with Compound 1 (dosed as a [Compound 1:HCl:3H2O]) at 50 mg, 100 mg, or 200 mg q.d.; or placebo. At Week 12, all subjects on placebo and the subjects on the 50 mg dose who have not achieved 20% improvement in swollen joint count (SJC66) and tender joint count (TJC68) will be assigned to 100 mg q.d. in a blinded fashion and will continue treatment until Week 24. Subjects in the other groups will maintain their randomized treatment until Week 24.
The determination of [LDL]-cholesterol is made using an automated method taking advantage of the selective micellary solubilization of [LDL]-cholesterol by a nonionic detergent and the interaction of a sugar compound and lipoproteins (VLDL and chylomicrons).
When a detergent is included in the enzymatic method for cholesterol determination (cholesterol esterase, cholesterol oxidase coupling reaction), the relative reactivities of cholesterol in the lipoprotein fractions increase in this order: [HDL]<chylomicrons <VLDL <[LDL]. In the presence of Mg^2+, a sugar compound markedly reduces the enzymatic reaction of the cholesterol measurement in VLDL and chylomicrons. The combination of a sugar compound with detergent enables the selective determination of [LDL]-cholesterol in serum. (Friedewald et al., 1972; Rifai et al., 1992)
Homogeneous enzymatic colorimetric assay.
In the presence of peroxidase, the hydrogen peroxide generated reacts with 4-aminoantipyrine and Sodium N-(2-hydroxy-3-sulfopropyl)-3,5-dimethoxyaniline (HSDA) to form a purple-blue dye.
The color intensity of this dye is directly proportional to the cholesterol concentration and is measured photometrically.
Human serum and plasma samples [LDL] determination was done on a Roche/Hitachi Cobas c 701/702 system which automatically calculate the analyte concentration of each sample. Samples containing precipitates are centrifuged before performing the assay.

[1] = 50 mg q.d. non responders switching to 100 mg q.d. at week 12, week 1
[2] = 50 mg q.d. non responders switching to 100 mg q.d. at week 12, week 2
[3] = 50 mg q.d. non responders switching to 100 mg q.d. at week 12, week 4
[4] = 50 mg q.d. non responders switching to 100 mg q.d. at week 12, week 8
[5] = 50 mg q.d. non responders switching to 100 mg q.d. at week 12, week 12

With `O=C(Nc1nc2cccc(-c3ccc(CN4CCS(=O)(=O)CC4)cc3)n2n1)C1CC1` [Compound 1, cyclopropanecarboxylic acid {5-[4-(1,1-dioxo-thiomorpholin-4-ylmethyl)-phenyl]-[1,2,4]triazolo[1,5-a]pyridin-2yl}-amide] the “[LDL] Mean percentage CFB - 24 weeks results” value [1] was −0.30%, the “[LDL] Median percentage CFB - 24 weeks results” value [1] was 2.72% and the “[LDL] Mean percentage CFB - 24 weeks results” value [2] was 1.96%. The “[LDL] Median percentage CFB - 24 weeks results” value [2] was −0.66%, the “[LDL] Mean percentage CFB - 24 weeks results” value [3] was 6.21% and the “[LDL] Median percentage CFB - 24 weeks results” value [3] was 1.36%. The “[LDL] Mean percentage CFB - 24 weeks results” value [4] was 4.76%, the “[LDL] Median percentage CFB - 24 weeks results” value [4] was 2.69% and the “[LDL] Mean percentage CFB - 24 weeks results” value [5] was 6.13%. For the same compound, the “[LDL] Median percentage CFB - 24 weeks results” value [5] was 3.06%, the “[LDL] Median percentage CFB - 24 weeks results” value (50 mg q.d. non responders switching to 100 mg q.d. at week 12, week 16) was 7.11% and the “[LDL] Median percentage CFB - 24 weeks results” value (50 mg q.d. non responders switching to 100 mg q.d. at week 12, week 20) was −0.80%. The “[LDL] Median percentage CFB - 24 weeks results” value (50 mg q.d. non responders switching to 100 mg q.d. at week 12, week 24) was 5.60%, the “[LDL] Mean percentage CFB - 24 weeks results” value (50 mg q.d. responders, week 1) was −0.43% and the “[LDL] Median percentage CFB - 24 weeks results” value (50 mg q.d. responders, week 1) was −0.29%. For the same compound, the “[LDL] Mean percentage CFB - 24 weeks results” value (50 mg q.d. responders, week 2) was −2.56%, the “[LDL] Median percentage CFB - 24 weeks results” value (50 mg q.d. responders, week 2) was −2.27% and the “[LDL] Mean percentage CFB - 24 weeks results” value (50 mg q.d. responders, week 4) was 2.09%. For the same compound, the “[LDL] Median percentage CFB - 24 weeks results” value (50 mg q.d. responders, week 4) was −1.14%, the “[LDL] Mean percentage CFB - 24 weeks results” value (50 mg q.d. responders, week 8) was 6.10% and the “[LDL] Median percentage CFB - 24 weeks results” value (50 mg q.d. responders, week 8) was 5.33%. The “[LDL] Mean percentage CFB - 24 weeks results” value (50 mg q.d. responders, week 12) was 3.64%, the “[LDL] Median percentage CFB - 24 weeks results” value (50 mg q.d. responders, week 12) was 0.69% and the “[LDL] Mean percentage CFB - 24 weeks results” value (50 mg q.d. responders, week 16) was 7.12%. For the same compound, the “[LDL] Median percentage CFB - 24 weeks results” value (50 mg q.d. responders, week 16) was 7.71%, the “[LDL] Mean percentage CFB - 24 weeks results” value (50 mg q.d. responders, week 20) was 1.20% and the “[LDL] Median percentage CFB - 24 weeks results” value (50 mg q.d. responders, week 20) was 3.91%. For the same compound, the “[LDL] Mean percentage CFB - 24 weeks results” value (50 mg q.d. responders, week 24) was 1.97%, the “[LDL] Median percentage CFB - 24 weeks results” value (50 mg q.d. responders, week 24) was −0.19% and the “[LDL] Mean percentage CFB - 12 weeks results” value (50 mg q.d., week 1) was −0.40%. The “[LDL] Median percentage CFB - 12 weeks results” value (50 mg q.d., week 1) was 0.18%, the “[LDL] Mean percentage CFB - 12 weeks results” value (50 mg q.d., week 2) was −1.59% and the “[LDL] Median percentage CFB - 12 weeks results” value (50 mg q.d., week 2) was −1.23%. The “[LDL] Mean percentage CFB - 12 weeks results” value (50 mg q.d., week 4) was 2.97%, the “[LDL] Median percentage CFB - 12 weeks results” value (50 mg q.d., week 4) was 0.76% and the “[LDL] Mean percentage CFB - 12 weeks results” value (50 mg q.d., week 8) was 5.80%. The “[LDL] Median percentage CFB - 12 weeks results” value (50 mg q.d., week 8) was 4.49%, the “[LDL] Mean percentage CFB - 12 weeks results” value (50 mg q.d., week 12) was 4.19% and the “[LDL] Median percentage CFB - 12 weeks results” value (50 mg q.d., week 12) was 1.14%. For the same compound, the “[LDL] Mean percentage CFB - 12 weeks results” value (100 mg q.d., week 1) was 6.36%, the “[LDL] Mean percentage CFB - 24 weeks results” value (100 mg q.d., week 1) was 6.36% and the “[LDL] Median percentage CFB - 12 weeks results” value (100 mg q.d., week 1) was 1.97%. The “[LDL] Median percentage CFB - 24 weeks results” value (100 mg q.d., week 1) was 1.97%, the “[LDL] Mean percentage CFB - 12 weeks results” value (100 mg q.d., week 2) was 6.15% and the “[LDL] Mean percentage CFB - 24 weeks results” value (100 mg q.d., week 2) was 6.15%. For the same compound, the “[LDL] Median percentage CFB - 24 weeks results” value (100 mg q.d., week 2) was −1.82%, the “[LDL] Mean percentage CFB - 12 weeks results” value (100 mg q.d., week 4) was 10.29% and the “[LDL] Mean percentage CFB - 24 weeks results” value (100 mg q.d., week 4) was 10.29%. The “[LDL] Median percentage CFB - 12 weeks results” value (100 mg q.d., week 4) was 5.08%, the “[LDL] Median percentage CFB - 24 weeks results” value (100 mg q.d., week 4) was 5.08% and the “[LDL] Mean percentage CFB - 12 weeks results” value (100 mg q.d., week 8) was 7.39%. The “[LDL] Mean percentage CFB - 24 weeks results” value (100 mg q.d., week 8) was 7.39%, the “[LDL] Median percentage CFB - 12 weeks results” value (100 mg q.d., week 8) was 5.34% and the “[LDL] Median percentage CFB - 24 weeks results” value (100 mg q.d., week 8) was 5.34%. The “[LDL] Mean percentage CFB - 12 weeks results” value (100 mg q.d., week 12) was 14.31%, the “[LDL] Mean percentage CFB - 24 weeks results” value (100 mg q.d., week 12) was 14.31% and the “[LDL] Median percentage CFB - 12 weeks results” value (100 mg q.d., week 12) was 5.78%. For the same compound, the “[LDL] Median percentage CFB - 24 weeks results” value (100 mg q.d., week 12) was 5.78%, the “[LDL] Mean percentage CFB - 24 weeks results” value (100 mg q.d., week 16) was 12.10% and the “[LDL] Median percentage CFB - 24 weeks results” value (100 mg q.d., week 16) was 7.81%. The “[LDL] Mean percentage CFB - 24 weeks results” value (100 mg q.d., week 20) was 12.84%, the “[LDL] Median percentage CFB - 24 weeks results” value (100 mg q.d., week 20) was 7.74% and the “[LDL] Mean percentage CFB - 24 weeks results” value (100 mg q.d., week 24) was 14.01%. For the same compound, the “[LDL] Median percentage CFB - 24 weeks results” value (100 mg q.d., week 24) was 9.61%, the “[LDL] Mean percentage CFB - 12 weeks results” value (200 mg q.d., week 1) was 8.06% and the “[LDL] Mean percentage CFB - 24 weeks results” value (200 mg q.d., week 1) was 8.06%. The “[LDL] Median percentage CFB - 12 weeks results” value (200 mg q.d., week 1) was 6.59%, the “[LDL] Median percentage CFB - 24 weeks results” value (200 mg q.d., week 1) was 6.59% and the “[LDL] Mean percentage CFB - 12 weeks results” value (200 mg q.d., week 2) was 8.39%. For the same compound, the “[LDL] Mean percentage CFB - 24 weeks results” value (200 mg q.d., week 2) was 8.39%, the “[LDL] Median percentage CFB - 12 weeks results” value (200 mg q.d., week 2) was 5.81% and the “[LDL] Median percentage CFB - 24 weeks results” value (200 mg q.d., week 2) was 5.81%. The “[LDL] Mean percentage CFB - 12 weeks results” value (200 mg q.d., week 4) was 9.99%, the “[LDL] Mean percentage CFB - 24 weeks results” value (200 mg q.d., week 4) was 9.99% and the “[LDL] Median percentage CFB - 12 weeks results” value (200 mg q.d., week 4) was 10.14%. For the same compound, the “[LDL] Median percentage CFB - 24 weeks results” value (200 mg q.d., week 4) was 10.14%, the “[LDL] Mean percentage CFB - 12 weeks results” value (200 mg q.d., week 8) was 9.80% and the “[LDL] Mean percentage CFB - 24 weeks results” value (200 mg q.d., week 8) was 9.80%. For the same compound, the “[LDL] Median percentage CFB - 12 weeks results” value (200 mg q.d., week 8) was 8.13%, the “[LDL] Median percentage CFB - 24 weeks results” value (200 mg q.d., week 8) was 8.13% and the “[LDL] Mean percentage CFB - 12 weeks results” value (200 mg q.d., week 12) was 16.80%. The “[LDL] Mean percentage CFB - 24 weeks results” value (200 mg q.d., week 12) was 16.80%, the “[LDL] Median percentage CFB - 12 weeks results” value (200 mg q.d., week 12) was 11.50% and the “[LDL] Median percentage CFB - 24 weeks results” value (200 mg q.d., week 12) was 11.50%. The “[LDL] Mean percentage CFB - 24 weeks results” value (200 mg q.d., week 16) was 12.24%, the “[LDL] Median percentage CFB - 24 weeks results” value (200 mg q.d., week 16) was 9.19% and the “[LDL] Mean percentage CFB - 24 weeks results” value (200 mg q.d., week 20) was 14.33%. For the same compound, the “[LDL] Median percentage CFB - 24 weeks results” value (200 mg q.d., week 20) was 10.33%, the “[LDL] Median percentage CFB - 24 weeks results” value (200 mg q.d., week 24) was 13.81% and the “[LDL] Mean CFB” value (50 mg q.d., week 1) was 0.011 mmol/L. The “[LDL] Median CFB” value (50 mg q.d., week 1) was 0.005 mmol/L, the “[LDL] Mean CFB” value (50 mg q.d., week 2) was -0.057 mmol/L and the “[LDL] Median CFB” value (50 mg q.d., week 2) was -0.040 mmol/L. The “[LDL] Mean CFB” value (50 mg q.d., week 4) was 0.047 mmol/L, the “[LDL] Median CFB” value (50 mg q.d., week 4) was 0.025 mmol/L and the “[LDL] Mean CFB” value (50 mg q.d., week 8) was 0.142 mmol/L. The “[LDL] Median CFB” value (50 mg q.d., week 8) was 0.130 mmol/L.
